Data reported in patent publication US20250084058A1, “PHENYLPYRAZOLE COMPOUND AND APPLICATION THEREOF” (priority 2022, published 2025).
Where two headings read alike, the source gives them in different places.

Legend:
Format in all cases: in vivo
Plutella xylostella = test: Activity determination of killing Plutella xylostella (Airbrush spray, cabbage leaf discs); conditions: foliar, 3rd day after administration; for mortality at 0.3125 µg/mL: 0.3125 mg/L, read-out: Mortality (%, on 3rd day after administration) 0.3125 mg/L; for mortality at 0.625 µg/mL: 0.625 mg/L, read-out: Mortality (%, on 3rd day after administration) 0.625 mg/L
Procedure: (§1) The compounds to be tested were dissolved in a mixed solvent of acetone/methanol (1:1) and then diluted to desired concentrations with water containing 0.1% (wt) Tween 80.
(§2) With Mythimna separata and Plutella xylostella as targets, the activity was determined by Airbrush spray method.
Determination method: Cabbage leaves were punched into leaf discs with the diameter of 2 cm by a puncher, the pressure of Airbrush spray treatment is 10 psi (about 0.7 kg/cm^2), and the compounds to be tested were sprayed onto the front and back surfaces of each leaf disc at a liquid amount of 0.5 mL. After drying in the shade, 10 3rd instar larvae were inoculated to each treatment, and each treatment was repeated for 3 times. After the treatment, the larvae were placed in an observation room for culture at 25° C. with relative humidity of 60-70%. On 3rd day after administration, the number of surviving larvae was investigated, and the mortality was calculated.
Some compounds of the present disclosure and control compounds were selected to carry out parallel comparative experiments of the insecticidal activity against Plutella xylostella (on 3rd day after administration), and the determination method was the same as above.

Mythimna separata = test: Activity determination of killing Mythimna separata (Airbrush spray, corn leaf segments); conditions: foliar, dose 1.25 mg/L, 3rd instar larvae, 3rd day after administration, read-out: mortality against Mythimna separata
Procedure: as §1, §2
Determination method: Corn leaves were cut into leaf segments with the length of 2 cm, the pressure of Airbrush spray treatment is 10 psi (about 0.7 kg/cm^2), and the compounds to be tested were sprayed onto the front and back surfaces of each leaf segment at a liquid amount of 0.5 mL. After drying in the shade, 10 3rd instar larvae were inoculated to each treatment, and each treatment was repeated for 3 times. After the treatment, the larvae were placed in an observation room for culture at 25° C. with relative humidity of 60-70%. On the 3rd day after administration, the number of surviving larvae was investigated, and the mortality was calculated.

Dermacentor variabilis = test: Insecticidal test on Dermacentor variabilis (compound film in culture dish); conditions: 1 μg/cm^2, 1st nymphs, after 24 h, 25° C., read-out: insect mortality (Dermacentor variabilis)
Procedure: (§3) 4 mg of compounds to be tested were dissolved in 40 mL of acetone to obtain acetone solutions with a concentration of 100 mg/L. Bottom surfaces and side surfaces of 2 culture dishes with an inner diameter of 5.3 cm were coated with 400 μL of the drug solutions, and when the acetone was volatilized, films of the compounds of the present disclosure were prepared on inner walls of the culture dishes. The inner walls of the culture dishes used were 40 cm^2, and a dose of the treatment drugs was 1 μg/cm^2. 10 1st nymphs of Dermacentor variabilis (males and females were mixed) were placed in the culture dishes. The 2 culture dishes were combined, sealed with tape at a junction portion to prevent escape of the nymphs, and then stored in a constant-temperature room at 25° C. The number of dead insects was checked after 24 h, and the insect mortality was calculated. The test was repeated for 3 times. Test results: The insect mortality of compounds 1, 2, 3, 4, 5, 11, 12, 18, 32, 33, 34, 46, 60, 74, 88, 99, 101, 102, 104, 105, 108, 109, 110, 111, 113 and 114 is 70% or above.

Tetranychus cinnabarinus = test: Greenhouse acaricidal activity on adult acarids of Tetranychus cinnabarinus (spraying of Phaseolus vulgaris seedlings); conditions: dose 1.25 mg/L, after 72 h, read-out: mortality against adult acarids of Tetranychus cinnabarinus
Procedure: According to the solubility of the compounds to be tested, the compounds to be tested were dissolved in acetone or dimethyl sulfoxide and prepared into 50 mL of solutions to be tested at desired concentrations with a 0.1% Tween 80 solution, where the content of the acetone or dimethyl sulfoxide in the solutions was not higher than 10%.
Two true leaves of Phaseolus vulgaris seedlings were taken, and 30-40 adult acarids of Tetranychus cinnabarinus were inoculated. After the cardinal number was investigated, the whole plants were subjected to spraying treatment with a hand-held sprayer, each treatment was repeated for 3 times, and the plants were placed in a standard observation room after the treatment. The number of surviving acarids was investigated after 72 h, and the mortality was calculated.

Ctenocephalides felis = test: Insecticidal test on Ctenocephalides felis (compound film in culture dish); conditions: 1 μg/cm^2; adult Ctenocephalides felis; after 72 h; 25° C.; read-out: insect mortality (Ctenocephalides felis)
Procedure: as §3, with “of” for “of 2”, “adult Ctenocephalides felis” for “1st nymphs of Dermacentor variabilis”, “dishes, and the” for “dishes. The 2”, “covered” for “combined, sealed with tape at a junction portion to prevent escape of the nymphs,”, “72” for “24”

[1] = dose 1.25 mg/L, 3rd instar larvae, read-out: mortality against Plutella xylostella
[2] = parallel comparative experiment
[3] = 1.25 mg/L, parallel comparative experiment, read-out: Mortality (%, on 3rd day after administration) 1.25 mg/L

| Structure (SMILES) | mortality at 1.25 µg/mL (Plutella xylostella; [1]) [%] | mortality at 1.25 µg/mL (Mythimna separata) [%] | mortality at 1 µg/cm2 (Dermacentor variabilis) [%] | mortality at 1.25 µg/mL (Tetranychus cinnabarinus) [%] | mortality at 1 µg/cm2 (Ctenocephalides felis) [%] | mortality at 0.3125 µg/mL (Plutella xylostella; [2]) [%] | mortality at 0.625 µg/mL (Plutella xylostella; [2]) [%] | mortality at 1.25 µg/mL (Plutella xylostella; [3]) [%] |
| --- | --- | --- | --- | --- | --- | --- | --- | --- |
| CC(C)C(=O)N(C(=O)c1cc(-c2cnn(-c3c(Cl)cc(C(F)(C(F)(F)F)C(F)(F)F)cc3Cl)c2)cnc1Cl)C1(C#N)CC1 [Compound 111] | ≥ 90 | ≥ 90 | ≥ 70 | ≥ 90 | ≥ 70 | – | – | – |
| N#CCN(C(=O)c1cc(-c2cnn(-c3c(Cl)cc(C(F)(C(F)(F)F)C(F)(F)F)cc3Cl)c2)cnc1Cl)C1CC1 [Compound 4] | ≥ 90 | ≥ 90 | ≥ 70 | ≥ 90 | ≥ 70 | 100 | 100 | 100 |
| CCCC(=O)N(C(=O)c1cc(-c2cnn(-c3c(Cl)cc(C(F)(C(F)(F)F)C(F)(F)F)cc3Cl)c2)cnc1Cl)C1(C#N)CC1 [Compound 110] | ≥ 90 | ≥ 90 | ≥ 70 | ≥ 90 | ≥ 70 | – | – | – |
| CC(=O)N(C(=O)c1cc(-c2cnn(-c3c(Cl)cc(C(F)(C(F)(F)F)C(F)(F)F)cc3Cl)c2)cnc1Cl)C1(C#N)CC1 [Compound 108] | ≥ 90 | ≥ 90 | ≥ 70 | ≥ 90 | ≥ 70 | 100 | 100 | 100 |
| CC(=O)N(C(=O)c1cc(-c2cnn(-c3c(Cl)cc(C(F)(C(F)(F)F)C(F)(F)F)cc3Cl)c2)cnc1Cl)C1CC1 [Compound 99] | ≥ 90 | ≥ 90 | ≥ 70 | ≥ 90 | ≥ 70 | 100 | 100 | 100 |
| COCC(=O)N(C(=O)c1cc(-c2cnn(-c3c(Cl)cc(C(F)(C(F)(F)F)C(F)(F)F)cc3Cl)c2)cnc1Cl)C1(C#N)CC1 [Compound 114] | ≥ 90 | ≥ 90 | ≥ 70 | ≥ 90 | ≥ 70 | 100 | 100 | 100 |
| N#CCN(C(=O)c1cc(-c2cnn(-c3c(Cl)cc(C(F)(C(F)(F)F)C(F)(F)F)cc3OC(F)(F)F)c2)cnc1Cl)C1CC1 [Compound 88] | ≥ 90 | ≥ 90 | ≥ 70 | ≥ 90 | ≥ 70 | – | – | – |
| C=CCN(C(=O)c1cc(-c2cnn(-c3c(Cl)cc(C(F)(C(F)(F)F)C(F)(F)F)cc3Cl)c2)cnc1Cl)C1CC1 [Compound 1] | ≥ 90 | ≥ 90 | ≥ 70 | ≥ 90 | ≥ 70 | 93.3 | 100 | 100 |
| N#CCCCN(C(=O)c1cc(-c2cnn(-c3c(Cl)cc(C(F)(C(F)(F)F)C(F)(F)F)cc3Br)c2)cnc1Cl)C1CC1 [Compound 34] | ≥ 90 | ≥ 90 | ≥ 70 | ≥ 90 | ≥ 70 | – | – | – |
| N#CCN(C(=O)c1cc(-c2cnn(-c3c(Br)cc(C(F)(C(F)(F)F)C(F)(F)F)cc3Br)c2)cnc1Cl)C1CC1 [Compound 18] | ≥ 90 | ≥ 90 | ≥ 70 | ≥ 90 | ≥ 70 | – | – | – |
| N#CCN(C(=O)c1cc(-c2cnn(-c3c(Cl)cc(C(F)(C(F)(F)F)C(F)(F)F)cc3C(F)(F)F)c2)cnc1Cl)C1CC1 [Compound 60] | ≥ 90 | ≥ 90 | ≥ 70 | ≥ 90 | ≥ 70 | – | – | – |
| N#CCCN(C(=O)c1cc(-c2cnn(-c3c(Cl)cc(C(F)(C(F)(F)F)C(F)(F)F)cc3Cl)c2)cnc1Cl)C1(C#N)CC1 [Compound 12] | ≥ 90 | ≥ 90 | ≥ 70 | ≥ 90 | ≥ 70 | 100 | 100 | 100 |
| N#CC1(N(C(=O)c2cc(-c3cnn(-c4c(Cl)cc(C(F)(C(F)(F)F)C(F)(F)F)cc4Cl)c3)cnc2Cl)C(=O)C2CC2)CC1 [Compound 113] | ≥ 90 | ≥ 90 | ≥ 70 | ≥ 90 | ≥ 70 | 100 | 100 | 100 |
| O=C(c1cc(-c2cnn(-c3c(Cl)cc(C(F)(C(F)(F)F)C(F)(F)F)cc3Cl)c2)cnc1Cl)N(C(=O)C1CC1)C1CC1 [Compound 104] | ≥ 90 | ≥ 90 | ≥ 70 | ≥ 90 | ≥ 70 | 100 | 100 | 100 |
| C#CCN(C(=O)c1cc(-c2cnn(-c3c(Cl)cc(C(F)(C(F)(F)F)C(F)(F)F)cc3Cl)c2)cnc1Cl)C1CC1 [Compound 2] | ≥ 90 | ≥ 90 | ≥ 70 | ≥ 90 | ≥ 70 | 90 | 100 | 100 |
| COCC(=O)N(C(=O)c1cc(-c2cnn(-c3c(Cl)cc(C(F)(C(F)(F)F)C(F)(F)F)cc3Cl)c2)cnc1Cl)C1CC1 [Compound 105] | ≥ 90 | ≥ 90 | ≥ 70 | ≥ 90 | ≥ 70 | 100 | 100 | 100 |
| O=C(c1cc(-c2cnn(-c3c(Cl)cc(C(F)(C(F)(F)F)C(F)(F)F)cc3Cl)c2)cnc1Cl)N(CC1CC1)C1CC1 [Compound 3] | ≥ 90 | ≥ 90 | ≥ 70 | ≥ 90 | ≥ 70 | 76.7 | 100 | 100 |
